In patent US20240382629A1, “HETEROBIVALENT AND HOMOBIVALENT AGENTS TARGETING FIBROBLAST ACTIVATION PROTEIN ALPHA AND/OR PROSTATE-SPECIFIC MEMBRANE ANTIGEN” (The Johns Hopkins University, priority 2021, published 2024):
Values joined by “and” are separate entries in the source; they are usually repeats but may differ in a detail not shown here. Equal values may be shown once.

Test: Biodistribution of representative compounds ([^18F]Sri-07-56, [^18F]Sri-07-52, [^18F]JHU1221823, [^18F]FAPI-74), tissue % ID/g with carrier or blocker
Type: in vivo, mouse
Conditions: 20 μCi per mouse; for Bladder % ID/g / Blood % ID/g / Brain % ID/g / Fat % ID/g / Femur % ID/g / Heart % ID/g / Kidney % ID/g / Large intestine % ID/g / Liver % ID/g / Lung % ID/g / Muscle % ID/g / Pancreas % ID/g / Salivery gland % ID/g / Small intestine % ID/g / Spleen % ID/g / Stomach % ID/g / Tumor % ID/g: individual mice
Source text: Biodistribution of Representative Compounds

For `N#C[C@@H]1CCCN1C(=O)CNC(=O)c1ccnc2ccc(OCCCNC(=O)CCOCCOCCOCCOCCNC(=O)[C@H](CCCCNC(=O)c3ccc([18F])nc3)NC(=O)CN3CCN(CC(=O)O)CCN(CC(=O)O)CCN(CC(=O)O)CC3)cc12` [[^18F]JHU1221823], the “Bladder % ID/g Mean” value (60 min) was 4.53 % ID/g, the “Blood % ID/g Mean” value (60 min) was 9.54 % ID/g and the “Brain % ID/g Mean” value (60 min) was 0.22 % ID/g. For the same compound, the “Fat % ID/g Mean” value (60 min) was 1.07 % ID/g, the “Femur % ID/g Mean” value (60 min) was 2.83 % ID/g and the “Heart % ID/g Mean” value (60 min) was 4.65 % ID/g. For the same compound, the “Kidney % ID/g Mean” value (60 min) was 2.73 % ID/g, the “Large intestine % ID/g Mean” value (60 min) was 1.49 % ID/g and the “Liver % ID/g Mean” value (60 min) was 2.99 % ID/g. The “Lung % ID/g Mean” value (60 min) was 5.72 % ID/g, the “Muscle % ID/g Mean” value (60 min) was 1.78 % ID/g and the “Pancreas % ID/g Mean” value (60 min) was 2.14 % ID/g. For the same compound, the “Salivary gland % ID/g Mean” value (60 min) was 6.93 % ID/g, the “Small intestine % ID/g Mean” value (60 min) was 3.02 % ID/g and the “Spleen % ID/g Mean” value (60 min) was 2.15 % ID/g. For the same compound, the “Stomach % ID/g Mean” value (60 min) was 1.14 % ID/g, the “Tumor % ID/g Mean” value (60 min) was 5.71 % ID/g and the “Bladder % ID/g” value (60 min) was 6.41 % ID/g and 2.64 % ID/g. For the same compound, the “Blood % ID/g” value (60 min) was 9.28 % ID/g and 9.80 % ID/g, the “Brain % ID/g” value (60 min) was 0.23 % ID/g and 0.22 % ID/g and the “Fat % ID/g” value (60 min) was 0.47 % ID/g and 1.68 % ID/g. The “Femur % ID/g” value (60 min) was 2.55 % ID/g and 3.11 % ID/g, the “Heart % ID/g” value (60 min) was 4.31 % ID/g and 4.98 % ID/g and the “Kidney % ID/g” value (60 min) was 2.70 % ID/g and 2.77 % ID/g. For the same compound, the “Large intestine % ID/g” value (60 min) was 1.29 % ID/g and 1.69 % ID/g, the “Liver % ID/g” value (60 min) was 2.68 % ID/g and 3.29 % ID/g and the “Lung % ID/g” value (60 min) was 5.53 % ID/g and 5.91 % ID/g. For the same compound, the “Muscle % ID/g” value (60 min) was 1.79 % ID/g and 1.78 % ID/g, the “Pancreas % ID/g” value (60 min) was 1.62 % ID/g and 2.66 % ID/g and the “Salivery gland % ID/g” value (60 min) was 7.44 % ID/g and 6.43 % ID/g. For the same compound, the “Small intestine % ID/g” value (60 min) was 2.59 % ID/g and 3.46 % ID/g, the “Spleen % ID/g” value (60 min) was 1.86 % ID/g and 2.43 % ID/g and the “Stomach % ID/g” value (60 min) was 0.84 % ID/g and 1.45 % ID/g. The “Tumor % ID/g” value (60 min) was 4.35 % ID/g and 7.05 % ID/g, the “Bladder % ID/g Mean” value (120 min) was 1.92 % ID/g and the “Blood % ID/g Mean” value (120 min) was 6.28 % ID/g. The “Brain % ID/g Mean” value (120 min) was 0.18 % ID/g, the “Fat % ID/g Mean” value (120 min) was 1.45 % ID/g and the “Femur % ID/g Mean” value (120 min) was 1.61 % ID/g. The “Heart % ID/g Mean” value (120 min) was 3.49 % ID/g, the “Kidney % ID/g Mean” value (120 min) was 1.93 % ID/g and the “Large intestine % ID/g Mean” value (120 min) was 1.38 % ID/g. The “Liver % ID/g Mean” value (120 min) was 2.18 % ID/g, the “Lung % ID/g Mean” value (120 min) was 3.65 % ID/g and the “Muscle % ID/g Mean” value (120 min) was 1.16 % ID/g. The “Pancreas % ID/g Mean” value (120 min) was 4.67 % ID/g, the “Salivary gland % ID/g Mean” value (120 min) was 8.11 % ID/g and the “Small intestine % ID/g Mean” value (120 min) was 2.04 % ID/g. The “Spleen % ID/g Mean” value (120 min) was 1.58 % ID/g, the “Stomach % ID/g Mean” value (120 min) was 1.24 % ID/g and the “Tumor % ID/g Mean” value (120 min) was 2.91 % ID/g. The “Bladder % ID/g” value (120 min) was 2.63 % ID/g and 1.21 % ID/g, the “Blood % ID/g” value (120 min) was 5.77 % ID/g and 6.78 % ID/g and the “Brain % ID/g” value (120 min) was 0.19 % ID/g and 0.17 % ID/g. For the same compound, the “Fat % ID/g” value (120 min) was 0.97 % ID/g and 1.93 % ID/g, the “Femur % ID/g” value (120 min) was 1.71 % ID/g and 1.91 % ID/g and the “Heart % ID/g” value (120 min) was 3.18 % ID/g and 3.79 % ID/g. For the same compound, the “Kidney % ID/g” value (120 min) was 1.61 % ID/g and 2.24 % ID/g, the “Large intestine % ID/g” value (120 min) was 1.40 % ID/g and 1.36 % ID/g and the “Liver % ID/g” value (120 min) was 1.94 % ID/g and 2.42 % ID/g. The “Lung % ID/g” value (120 min) was 3.13 % ID/g and 4.16 % ID/g, the “Muscle % ID/g” value (120 min) was 1.18 % ID/g and 1.15 % ID/g and the “Pancreas % ID/g” value (120 min) was 4.03 % ID/g and 5.32 % ID/g. For the same compound, the “Salivery gland % ID/g” value (120 min) was 5.17 % ID/g and 11.05 % ID/g, the “Small intestine % ID/g” value (120 min) was 1.88 % ID/g and 2.21 % ID/g and the “Spleen % ID/g” value (120 min) was 1.49 % ID/g and 1.67 % ID/g. For the same compound, the “Stomach % ID/g” value (120 min) was 1.11 % ID/g and 1.37 % ID/g and the “Tumor % ID/g” value (120 min) was 2.88 % ID/g and 2.94 % ID/g.
